Data set [1] concerns HIV-1. The data set can be described thus: p24 antigen ELISA of supernatants from induced HIV-1 latently infected cells (ACH2, 8E5, U1). As to conditions: for inhibition of HIV-1 replication, prolonged treatment: U1 and 8E5 cells, up to 21 days, 5 or 10 μM (data not shown); for postintegrative HIV-1 progeny formation: low concentrations (data not shown). The format is cell-based. As to the method:
We chose HIV-1 stably integrated cells, lymphocytic ACH2 and 8E5 cell lines, as well as monocytic U1 cells (and their uninfected parental counterparts CEM and U937, respectively) for our initial studies, since viral transcription could be activated and scored through signals, such as Tat, TNF-α or phorbol myristate acetate (PMA) and PHA. We first activated viruses in these cells with TNF-α (10 ng/ml) at 37° C. for 2 h, followed by washing, and then we incubated cells with 10 μM concentrations of each drug. […] We next examined the effect of all three drugs on primary HIV-1 field isolates of SI and NSI strains. Activated PBMC were infected with two independent HIV-1 viral strains of SI (UG/92/029, subtype A envelope) and NSI (THA/92/001, subtype E envelope).
Five days later, the supernatants were collected, and the amount of newly synthesized HIV-1 was measured by p24 antigen assay. (B) Purified Tat (300 μg) was electroporated into ACH2, 8E5, and U1 cells and subsequently treated with various drugs for 5 days. […] Seven days later samples were collected and used for p19 gag ELISA. (E) PHA-activated PBMC (5×10^6) were infected with HIV-1 either SI (UG/92/029 Uganda strain, subtype A envelope) or NSI (THA/92/001, Thailand strain, subtype E envelope) strains. Unadsorbed viruses were washed after 6 h, and cells were cultured in fresh media with various cdk inhibitors (10 μM). Samples were collected every sixth day and used for p24 gag ELISA assay.
At days 2, 4, and 6, the supernatants were collected, and the released HIV-1 particles were measured by using a p24 antigen ELISA assay. (B) Twenty micrograms of total RNA was separated on an RNA-formaldehyde-agarose gel, transferred, and probed with full-length labeled HIV-1 genome RNA. The hybridized genomic RNA, singly spliced (structural), and doubly spliced (regulatory) RNAs were exposed and counted by using Molecular Dynamic PhosphorImager software.
Supernatants from the infected PBMC were collected and used directly for the p24 antigen assay. The p24 gag antigen level was analyzed by using the HIVAG-1 Monoclonal Antibody Kit (Abbott Laboratories, Diagnostics Division). The HTLV-1 p19 core antigen ELISA kit was from Retro-Tek (Cellular Products).

In data set [2] the test system is CEM cells. The data set is described as follows: Cell proliferation, [3H]thymidine incorporation. It counts as cell-based. Particulars: ca. 10 μM. The text has this: We next sought to determine whether the inhibition of HIV-1 transcription, observed above, could be mediated specifically by cdk inhibitors or by general cell cycle inhibitors. To distinguish between the two possibilities, we performed transfection experiments with all three cdk inhibitors tested above and two other well-established cell cycle inhibitors, namely, hydroxyurea and nocodazole. Hydroxyurea blocks DNA replication by inhibiting ribonucleotide reductase and thus arrests cell cycle progression at the G1/S checkpoint, while nocodazole blocks at G2/M by promoting tubulin depolymerization. […] Therefore, the basal transcription of HIV-1 was inhibited by purine analogs and not general cell cycle inhibitors.
FIG. 3 discloses inhibition of HIV-1 basal and activated transcription by cdk inhibitors. […] The graphs at the bottom of the figure represent the effect of various concentrations of general cell cycle inhibitors (hydroxyurea and nocodazole) on CEM cells. (B) Inhibition of activated transcription in CEM cells was examined using transfected HIV-1 LTR-CAT, together with pcTat plasmid. […]
Cells (CEM) were initially treated with various concentrations of hydroxyurea or nocodazole and evaluated after 0, 12, 24, 48, 60, and 72 h. […] The amount of radioactivity incorporated into the DNA was measured in a liquid scintillation counter (Packard) and expressed as the counts per minute (cpm). […]

The subject of data set [3] is uninfected T and monocytic cells. The data set is described as follows: Initial test of cdk inhibitors on uninfected cells (data not shown).

`NC(=O)NO` [hydroxyurea, reference compound]: in data set [1], the “inhibition of HIV-1 replication, prolonged treatment” value is recorded as “neither hydroxyurea nor nocodazole was able to inhibit HIV-1 replication” and the “postintegrative HIV-1 progeny formation” value was “remained essentially the same”. In addition, the “inhibition of DNA synthesis” value in data set [2] is given as “no inhibition of DNA synthesis was observed”.

`Cn1cnc2c(NCc3ccccc3)nc(NCCO)nc21` [Olomoucine]: the “toxicity in uninfected cells” value in data set [3] is reported as “lack of toxicity”.

With `COC(=O)Nc1nc2ccc(C(=O)c3cccs3)cc2[nH]1` [nocodazole, reference compound], in data set [1], the “inhibition of HIV-1 replication, prolonged treatment” value was “neither hydroxyurea nor nocodazole was able to inhibit HIV-1 replication” and the “postintegrative HIV-1 progeny formation” value is “slightly higher”. For the same compound, in data set [2], the “inhibition of DNA synthesis” value is recorded as “no inhibition of DNA synthesis was observed”.

These data come from patent US20030229105A1, “Treatment of autoimmune disorders” (Cyclacel Limited, priority 2002, published 2003).
